Experimental findings from patent publication US9527832B2, “Substituted condensed pyrimidine compounds” (GRÜNENTHAL GMBH, priority 2013, dated 2016) are described below.

Molecules are shown by their SMILES. Bounds are passed on as bounds.

This assay concerns the target T1, human PDE4B1 (Homo sapiens, UniProt Q07343).
T1 construct: host or cells: Sf9 cells
In words: cAMP HTRF assay to determine the activity of hPDE4B1. To be noted: for inhibition at 1 µM: Percentage inhibition of PDE4B at 1 μM test concentration; for IC50: dose response measurements with eight concentrations, reported as ranges, read-out: IC50. In kind it is biochemical. How it is done:
cAMP HTRF® Assay to Determine the Activity of hPDE4B1
The inhibiting effect of the compounds on the enzyme activity of human PDE4B1 was measured by the quantification of 5′-adenosine monophosphate (5′-AMP), which is formed from 3′,5′-cyclic adenosine monophosphate (cAMP). Human recombinant enzyme, expressed in Sf9 cells, and the HTRF (homogeneous time-resolved fluorescence) detection method were used in the assay.
The test compound or water (control) was mixed with the human recombinant PDE4B1 enzyme (4.8 U) in a buffer consisting of 44.4 mM tris-HCl, 5.28 mM MgCl2, 2.64 mM DTT and 0.044% Tween 20 (pH 7.8). After adding the cAMP enzyme substrate (final concentration 40 nM), the mixture was incubated for 30 minutes at room temperature. Then a fluorescence acceptor (Dye2 marked with cAMP), a fluorescence donor (anti-cAMP antibody marked with a europium cryptate) and the non-specific phosphodiesterase inhibitor IBMX (3-isobutyl-1-methylxanthine; final concentration 1 mM) were added. After 60 minutes the fluorescence transfer, which correlates with the amount of remaining cAMP, was measured with a microplate reader (Rubystar, BMG) at λex=337 nm, λem=620 nm and λem=665 nm. The enzyme activity was calculated from the quotient formed from the measured signal at 665 nm and that at 620 nm. The result was expressed as the percentage inhibition of enzyme activity of the control (without PDE4 inhibitor). The enzyme was omitted for measurement of the basal control.
IC50 values (IC50=concentration causing a half-maximal inhibition of control specific activity) were derived from dose response measurements with eight different concentrations (n=2; N=1-2).
Literature: N. Saldou et al., Comparison of recombinant human PDE4 isoforms: interaction with substrate and inhibitors, Cell. Signal. Vol. 10, No. 6, 427-440, 1998
In general terms: Time-resolved FRET reads energy transfer from a long-lived donor to a nearby acceptor.

T1 sequence (Q07343 whole entry): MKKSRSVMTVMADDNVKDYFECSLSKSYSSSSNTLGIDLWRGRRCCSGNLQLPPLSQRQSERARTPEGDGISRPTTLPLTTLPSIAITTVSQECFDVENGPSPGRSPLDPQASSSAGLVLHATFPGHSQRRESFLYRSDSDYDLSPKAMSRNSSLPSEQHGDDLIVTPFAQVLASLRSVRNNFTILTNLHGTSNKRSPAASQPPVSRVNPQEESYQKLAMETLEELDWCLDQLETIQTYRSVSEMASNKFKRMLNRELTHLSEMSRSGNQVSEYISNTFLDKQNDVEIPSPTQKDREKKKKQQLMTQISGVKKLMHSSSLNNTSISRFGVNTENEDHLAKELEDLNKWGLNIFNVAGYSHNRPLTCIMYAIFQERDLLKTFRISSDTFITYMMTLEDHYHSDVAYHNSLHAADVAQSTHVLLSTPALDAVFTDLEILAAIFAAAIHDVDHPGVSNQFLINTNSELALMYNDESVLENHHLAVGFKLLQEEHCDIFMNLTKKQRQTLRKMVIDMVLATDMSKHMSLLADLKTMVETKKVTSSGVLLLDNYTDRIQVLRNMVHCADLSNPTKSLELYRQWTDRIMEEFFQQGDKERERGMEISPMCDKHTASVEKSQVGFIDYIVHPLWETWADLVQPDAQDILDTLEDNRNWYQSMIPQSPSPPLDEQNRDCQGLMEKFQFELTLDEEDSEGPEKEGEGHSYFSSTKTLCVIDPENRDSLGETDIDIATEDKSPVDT

Usually inhibition stands for the drop in the measured response relative to a control, in per cent. In general, IC50 refers to the point on the concentration scale where inhibition reaches its midpoint. Take `CN(C)C(=O)COc1ccc2c(c1)N(c1nc(-c3ccc4ccncc4c3)nc3c1C[S+]([O-])C3)CC2` (stereo not shown) [2-150, 2-[[1-(2-Isoquinolin-7-yl-6-oxo-5,7-dihydro-thieno[3,4-d]pyrimidin-4-yl)-2,3-dihydro-1H-indol-6-yl]oxy]-N,N-dimethyl-acetamide]: the inhibition at 1 µM was determined as 126% and the IC50 was less than 100 nM.

Take `CN(C)C(=O)COc1ccc2c(c1)N(c1nc(-c3cccc4[nH]ccc34)nc3c1C[S+]([O-])C3)CC2` (stereo not shown) [2-151, 2-[[1-[2-(1H-Indol-4-yl)-6-oxo-5,7-dihydro-thieno[3,4-d]pyrimidin-4-yl]-2,3-dihydro-1H-indol-6-yl]oxy]-N,N-dimethyl-acetamide]: the inhibition at 1 µM is 108% and the IC50 was less than 100 nM.

Consider `CN(C)C(=O)COc1ccc2c(c1)N(c1nc(-c3ccc4[nH]ccc4c3)nc3c1C[S+]([O-])C3)CC2` (stereo not shown) [2-152, 2-[[1-[2-(1H-Indol-5-yl)-6-oxo-5,7-dihydro-thieno[3,4-d]pyrimidin-4-yl]-2,3-dihydro-1H-indol-6-yl]oxy]-N,N-dimethyl-acetamide], for which the inhibition at 1 µM was determined as 88% and the IC50 was less than 100 nM.

Consider `CN(C)C(=O)COc1ccc2c(c1)N(c1nc(-c3ccc4c(c3)CCO4)nc3c1C[S+]([O-])C3)CC2` (stereo not shown) [2-153, 2-[[1-[2-(2,3-Dihydro-benzofuran-5-yl)-6-oxo-5,7-dihydro-thieno[3,4-d]pyrimidin-4-yl]-2,3-dihydro-1H-indol-6-yl]oxy]-N,N-dimethyl-acetamide], for which the inhibition at 1 µM came out at 97% and the IC50 is less than 100 nM.

Take `CN(C)C(=O)COc1ccc2c(c1)N(c1nc(-c3ccc4occc4c3)nc3c1C[S+]([O-])C3)CC2` (stereo not shown) [2-154, 2-[[1-[2-(Benzofuran-5-yl)-6-oxo-5,7-dihydro-thieno[3,4-d]pyrimidin-4-yl]-2,3-dihydro-1H-indol-6-yl]oxy]-N,N-dimethyl-acetamide]: the inhibition at 1 µM came out at 104% and the IC50 was less than 100 nM.

Turning to `CN(C)C(=O)COc1ccc2c(c1)N(c1nc(-c3ccc4sccc4c3)nc3c1C[S+]([O-])C3)CC2` (stereo not shown) [2-155, 2-[[1-[2-(Benzo[b]thiophen-5-yl)-6-oxo-5,7-dihydro-thieno[3,4-d]pyrimidin-4-yl]-2,3-dihydro-1H-indol-6-yl]oxy]-N,N-dimethyl-acetamide], the inhibition at 1 µM is 102% and the 50% inhibitory concentration (IC50) was less than 100 nM.

Consider `COc1ccc(-c2nc3c(c(N4CCc5cc(CC(=O)O)ccc54)n2)CCC3)cc1F` [Compound No. 1-1, 2-(1-(2-(3-Fluoro-4-methoxyphenyl)-6,7-dihydro-5H-cyclopenta[d]-pyrimidin-4-yl)indolin-5-yl)acetic acid], for which the inhibition at 1 µM stood at 102% and the IC50 was less than 100 nM.

As to `COc1ccc(-c2nc3c(c(N4CCc5cc(CC(=O)O)ccc54)n2)CCC3)cc1Cl` [Compound No. 1-2, 2-(1-(2-(3-Chloro-4-methoxyphenyl)-6,7-dihydro-5H-cyclopenta[d]-pyrimidin-4-yl)indolin-5-yl)acetic acid], the inhibition at 1 µM amounted to 91% and the IC50 was less than 100 nM.

For `COc1ccc(-c2nc3c(c(N4CCc5cc(CC(=O)O)ccc54)n2)CCC3)cc1` [Compound No. 1-3, 2-(1-(2-(4-Methoxyphenyl)-6,7-dihydro-5H-cyclopenta[d]pyrimidin-4-yl)indolin-5-yl)acetic acid], the inhibition at 1 µM was determined as 83% and the IC50 was less than 100 nM.

In the case of `COc1ccc(-c2nc3c(c(N4CCc5cc(CC(=O)O)ccc54)n2)CSC3)cc1Cl` [Compound No. 1-5, 2-(1-(2-(3-Chloro-4-methoxyphenyl)-5,7-dihydrothieno[3,4-d]pyrimidin-4-yl)indolin-5-yl)acetic acid], the inhibition at 1 µM was 98% and the concentration for half-maximal inhibition (IC50) was less than 100 nM.

Take `COc1ccc(-c2nc3c(c(N4CCc5cc(CC(=O)O)ccc54)n2)C[S+]([O-])C3)cc1Cl` (stereo not shown) [Compound No. 1-8, 2-(1-(2-(3-Chloro-4-methoxyphenyl)-6-oxido-5,7-dihydrothieno[3,4-d]pyrimidin-4-yl)indolin-5-yl)acetic acid]: the inhibition at 1 µM came to 102% and the concentration for half-maximal inhibition (IC50) was less than 100 nM.
